These results are taken from US20190201430A1, “TREATING OCULAR NEOVASCULARIZATION” (Massachusetts Eye and Ear Infirmary, priority 2014, published 2019).

Experiment [1] relates to caveolin-1. The experiment in a line: Western blotting of H2O2 induced caveolin-1 phosphorylation in HUVEC. The following applies: for effect of inhibitor pretreatment on the inhibitory effect of AICAR on H2O2 induced caveolin-1 phosphorylation: DPY 8 μM or IODO 0.4 μM 1 h, AICAR 2 mM 2 h, H2O2 2 mM 30 min, FIG. 2. The class given is cell-based, human. The method, then:
(§1) HUVECs (Lonza, Walkersville, Md.) were cultured in Endothelial Growth Medium (EGM, Lonza, Walkersville, Md.). For all experiments, cells were grown at 37° C. in a humidified atmosphere of 5% CO2 and 95% air. Experiments were performed on cells below passage 3 to 6 grown to 80-90% confluence.
(§2) Protein extraction and western blotting were carried out as described previously (Morizane et al. JBC). Densitometric analysis of bands was performed using ImageJ software. Lane-loading differences were normalized by β-actin.
(§3) Cells were transfected with siRNAs using Nucleofection kit (Amaxa Biosysteins, Gaithersburg, Md.), following the manufacturer's protocol. The medium was changed at 6 h after transfection. The down-regulation of each protein was evaluated at 3 days after nucleofection.
(In western blotting, separated proteins are transferred to a membrane and probed.)

In experiment [2] the test system is c-Abl. The experiment in a line: Western blotting of H2O2 induced c-Abl phosphorylation in HUVEC. The class given is cell-based, human. The following applies: DPY 8 μM or IODO 0.4 μM 1 h, AICAR 2 mM 2 h, H2O2 2 mM 30 min; FIG. 2. The method, then:
as §1, §2, §3

The test system of experiment [3] is AMPK. The experiment in a line: Western blotting of AMPK phosphorylation in HUVEC (Example 1). The conditions noted are these: DPY or IODO 1 h, then AICAR 2 mM 2 h, FIG. 2B,F. The class given is cell-based, human. The protocol: as §1, §2
Experiment [4] concerns prdx1/c-Abl complex. Description: Co-immunoprecipitation of prdx1 and c-Abl under H2O2. The class given is cell-based, human. The conditions noted are these: IODO before AICAR and H2O2; FIG. 6D. The protocol: Immunoprecipitation was performed with the Universal Magnetic Co-IP Kit (Active Motif North America, Carlsbad, Calif.), according to the manufacturer's instruction.
as §3

For experiment [5], the system named is Akt. The experiment in a line: Western blotting of Akt phosphorylation in HUVECs (VEGF). Type of experiment: cell-based, human. The protocol:
(§4) Human umbilical vein endothelial cells (HUVECs) were cultured in endothelial growth medium (EGM, Lonza, Walkersville, Md.). Normal human dermal fibroblasts (NHDFs) were cultured in fibroblast basal medium (ATCC, Rockville, Md.). Cells were grown at 37° C. in a humidified atmosphere of 95% air, 5% CO2. Experiments were performed on cells below passage 3 to 6 grown to 80%-90% confluence.
(§5) Protein extraction and Western blotting were carried out as described previously (Morizane et al. JBC (26)). We conducted a densitometric analysis of bands using ImageJ software. Lane-loading differences were normalized by β-actin.
(§6) Cells were transfected with siRNAs using a Nucleofection kit (Amaxa Biosystems, Gaithersburg, Md.), following the manufacturer's protocol. The medium was changed 6 h after transfection. The down-regulation of each protein was evaluated 3 days after nucleofection.

Experiment [6] concerns AMPK. Description: Western blotting of AMPK phosphorylation in HUVECs (Example 2). The class given is cell-based, human. The method, then:
as §4, §5

In experiment [7] the test system is PTEN. Description: Western blotting of PTEN phosphorylation in HUVECs. The following applies: IODO 0.1 μM 60 min, then AICAR 2 mM; FIG. 9A,D. The class given is cell-based, human. The protocol: as §4, §5
Experiment [8] has as its system caveolin-1. The experiment in a line: Western blotting of VEGF induced caveolin-1 phosphorylation in HUVECs. The class given is cell-based, human. The method, then: as §4, §5, §6
Experiment [9] has as its system c-Abl. The experiment in a line: Western blotting of VEGF induced c-Abl phosphorylation in HUVECs. Type of experiment: cell-based, human. The conditions noted are these: IODO 0.4 μM 1 h, AICAR 2 mM 2 h, VEGF 12.5 ng/mL 10 min; FIG. 12D,E. The method, then:
as §4, §5, §6

In experiment [10] the test system is prdx1/c-Abl complex. The experiment in a line: Co-immunoprecipitation of prdx1 and c-Abl under VEGF. Type of experiment: cell-based, human. The conditions noted are these: AK inhibitor IODO; FIG. 15D,E. The method, then: Immunoprecipitation was performed with the Universal Magnetic Co-IP Kit (Active Motif North America, Carlsbad, Calif.) according to the manufacturer's instruction.
as §6

The test system of experiment [11] is endothelial cells. The conditions noted are these: in the absence of VEGF; cited from earlier work.
Where [12] appears, read: IODO 0.4 μM 1 h, AICAR 2 mM 2 h, VEGF 12.5 ng/mL 10 min, FIG. 12D,E.

SMILES strings stand for the structures. Where a name gives a salt, the structure may show the parent alone.

Turning to `Nc1ncnc2c1c(I)cn2[C@@H]1O[C@H](CO)[C@@H](O)[C@H]1O` [IODO, 5-Iodotubericidin], the “effect of inhibitor pretreatment on the inhibitory effect of AICAR on H2O2 induced caveolin-1 phosphorylation” value in experiment [1] was “significantly restored”. The “effect of inhibitor pretreatment on the inhibitory effect of AICAR on H2O2 induced c-Abl phosphorylation” value in experiment [2] is listed as “significantly restored”. The “AICAR induced AMPK phosphorylation after inhibitor pretreatment” value in experiment [3] is reported as “inhibited AICAR induced AMPK phosphorylation dose-dependently”. In addition, the “prdx1/c-Abl dissociation with IODO prior to H2O2 and AICAR” value in experiment [4] was “restored the dissociation”. Moreover, the “effect of IODO pretreatment on AICAR induced Akt dephosphorylation” value in experiment [5] (IODO 0.1 μM 60 min, then AICAR 2 mM, FIG. 9A,C) is “suppressed and delayed”. Besides, the “effect of IODO on the inhibitory effect of AICAR on VEGF induced Akt phosphorylation” value in experiment [5] (setting [12]) is “significantly abolished”. In experiment [6] (IODO 0.1 μM 60 min, then AICAR 2 mM, FIG. 9A,B), the “effect of IODO pretreatment on AICAR induced AMPK phosphorylation” value is “suppressed and delayed”. For the same compound, the “effect of IODO pretreatment on AICAR induced PTEN phosphorylation” value in experiment [7] is “suppressed and delayed”. The “effect of IODO on the inhibitory effect of AICAR on VEGF induced caveolin-1 phosphorylation” value in experiment [8] (setting [12]) is recorded as “significantly abolished”. Further, the “effect of IODO on the inhibitory effect of AICAR on VEGF induced c-Abl phosphorylation” value in experiment [9] is given as “significantly abolished”. The “effect of IODO on AICAR inhibition of VEGF induced prdx1/c-Abl dissociation” value in experiment [10] is “abrogated”.

Take `N#Cc1c(O)c2c(-c3ccc(-c4ccccc4O)cc3)csc2[nH]c1=O` [A769662, 4-hydroxy-3-[4-(2-hydroxyphenyl)phenyl]-6-oxo-7H-thieno[2,3-b]pyridine-5-carbonitrile]: in [11], the endothelial proliferation result is listed as “suppressed endothelial proliferation”.

On to `OCCN(CCO)c1nc(N2CCCCC2)c2nc(N(CCO)CCO)nc(N3CCCCC3)c2n1` [DPY, dipyridamole], for which the “effect of inhibitor pretreatment on the inhibitory effect of AICAR on H2O2 induced caveolin-1 phosphorylation” value in experiment [1] is on record as “significantly restored”. In experiment [2], the “effect of inhibitor pretreatment on the inhibitory effect of AICAR on H2O2 induced c-Abl phosphorylation” value is recorded as “significantly restored”. The “AICAR induced AMPK phosphorylation after inhibitor pretreatment” value in experiment [3] was “inhibited AICAR induced AMPK phosphorylation dose-dependently”. Also, in [6] (each concentration of DPY 1 h, then AICAR 2 mM 2 h, FIG. 12B), the “AICAR induced AMPK phosphorylation after DPY pretreatment” value was “inhibited AMPK phosphorylation”.

For the compound `Cc1ccc(NC(=O)c2ccc(CN3CCN(C)CC3)cc2)cc1Nc1nccc(-c2cccnc2)n1` [imatinib mesylate, Imatinib mesylate], the “H2O2 induced phosphorylation of caveolin-1” value in experiment [1] (HUVEC, imatinib mesylate 10 or 20 uM for 24, 48 or 72 h, then H2O2 2 mM 30 min, FIG. 5A,B) was “inhibited H2O2 induced phosphorylation of both caveolin-1 and c-Abl dose- and time-dependently”. In addition, in [8] (imatinib mesylate 10 or 20 μM for 24, 48 or 72 h, then VEGF 12.5 ng/mL 10 min, FIG. 14A,C), the “VEGF-induced phosphorylation of caveolin-1” value is “inhibited the VEGF-induced phosphorylation of caveolin-1 and c-Abl in a time and dose dependent manner”.
